Test results from patent US10039771B2, “Method for cancer cell reprogramming” (STC.UNM, priority 2013, dated 2018).

Assays:
U937 cells [1] = assay: Annexin V-PE/7-AAD apoptosis assay; assay type: cell-based; conditions: Homo sapiens
From the text: To detect apoptosis we used an Annexin V and 7-amino-actinomycin D (7-AAD) based assay. Annexin V is a protein that has high binding affinity to phosphatidylserine, which is translocated from the inner to the outer leaflet of the membrane during early apoptosis. 7-AAD is a DNA dye that stains cells only when the cell membranes are permeable. Thus, double positive events are considered to represent end stage apoptosis and dead cells. […] The results obtained using this assay correlated well with the results of other assays:
Six-well plates were set up with dose responses for each of the 11 hit compounds (artemisinin, artemether, artesunate, dihydroartemisinin, parthenolide, patulin, clioquinol, cryptotanshinone, pyrithione zinc, harmalol, quinalizarin). Each well contained 2.5×10^6 U937 cells in 5 mL cRPMI. To each well, 15 μL of compound in DMSO (or vehicle control) was fTadded, giving final concentrations of 0, 300 nM, and 1, 3, 10, and 30 […] were incubated overnight, at 37° C., 5% CO2/95% air. The compound effects on apoptosis were assessed with an Annexin V-PE/7-amino-actinomycin D (7-AAD) kit (BD Pharmingen™ cat. no. 559763), according to manufacturer protocol, and data were collected with a BD Accuri™ C6 flow cytometer. A gate was set for live cells, and 10,000 gated events were collected per sample. FL-2 versus FL-3 channel dot plots were divided into quadrants and were used to determine percentages of gated cells that were Annexin V^−/7-AAD^− (live, healthy cells), Annexin V^+/7-AAD^− (early apoptosis), or Annexin V^+/7-AAD^+ (late, full apoptosis).
[…] The samples were plotted as Annexin V vs 7-AAD and quadrant-gated. Annexin V^+, 7-AAD^− events are indicative of early apoptosis, in which phosphatidyl serine has flipped to the outer leaflet of the cell membrane. Annexin V^+, 7-AAD^+ (double positive) events indicate cell and nuclear membrane permeabilization, marking late apoptotic events or complete cell death.

U937 cells [2] = assay: Propidium iodide cell cycle assay; conditions: 24 hour incubation, dose response
U937 cells [3] = assay: F-cAMP (Alexa 488-cAMP) efflux assay / high throughput flow cytometry screen; assay type: cell-based, human; conditions: for Hit status in preliminary screen for cAMP efflux inhibitors: Prestwick/SPECTRUM library screen, U937 cells
Procedure: U937 cell were loaded with the analog by a method relying on osmotic lysis of pinocytic vesicles (15). After incubation, cell fluorescence decreased to a level that was close to cell autofluorescence.
Briefly, cells were concentrated and washed, with resuspension NF-RPMI (cRPMI without FBS). Cells were then resuspended in an NF-RPMI hypertonic solution containing poly(ethylene glycol) 1,000 (PEG), sucrose, and Alexa Fluor® 488 8-(6-aminohexyl) aminoadenosine 3′,5′-cyclicmonophosphate, bis(triethylammonium) salt, hereafter referred to as F-cAMP, to give a final concentration of 4.76 mM F-cAMP. Cells were incubated for 10 min, room temperature, then centrifuged and resuspended in hypotonic solution (60% cRPMI, 40% sterile water) for 2 min at room temperature to complete the F-cAMP loading. The cells were then washed and resuspended in cRPMI at a final concentration of 4×10^5 cells/mL, and allowed to equilibrate for 2 hours in a 37° C., 5% CO2/95% air incubator.
The remainder of the cells was incubated (37° C., 5% CO2/95% air) in the presence of dimethyl sulfoxide (DMSO) vehicle or compounds overnight. Flow cytometry was used to measure samples, and unstained U937 cells were used to create a gate to mark viable cells. Control and experimental samples were excited with a 488 nm laser and analyzed for FL-1 median fluorescence intensity (MFI) within that gate.
For the high throughput screening assay (HTS), U937 cells were loaded with F-cAMP as described above. Solutions were added to 384-well plates (Greiner 784201) with a Biomek FX Multichannel system (Beckman-Coulter) and/or MicroFlo as follows: 1) 5 μL cRPMI; 2) 100 nL compounds from the Prestwick Chemical Library or Spectrum 2000 Library in DMSO were delivered by pintool (V&P Scientific, San Diego, Calif.), final DMSO concentration=1%; 3) 5 μL F-cAMP cells. Negative control wells contained stained cells with 1% DMSO only. For positive controls, F-cAMP cells were treated with 200 μM MK-571. The final concentration for all conditions was 2000 cells/well. The plates were sealed with foil, and incubated (37° C., 5% CO2/95% air) inverted overnight.
After incubation, the 384-well sample plates were analyzed by CyAn flow cytometers (Beckman-Coulter) configured with HyperCyt high throughput auto-sampler systems (IntelliCyt Albuquerque, N. Mex.). The samples were interrogated with 488 nm lasers to assess FL-1 MCI levels.
Data from the HTS were analyzed with HyperView software (IntelliCyt, Albuquerque, N. Mex.) and gated on untreated, live cell populations and then time-gated to separate data per well. FL-1 MCI values for the samples were analyzed per plate. Those samples which reported MCI values≥2 standard deviations above the plate mean negative control values were considered “hit” compounds.
To validate the identified samples and decrease the number of potential false-positive compounds, the hit compounds were assayed in a high-throughput dose response assay. This assay set up 384-well plates with the same volumes of F-cAMP cells, cRPMI, and DMSO/compounds as in the HTS, with the plate formats containing 10-well dose responses for each hit compound, at final concentrations ranging 30 μM to 4 nM. These plates were also foil-sealed, and incubated inverted overnight. Post-incubation, the dose response plates were analyzed by high throughput flow cytometry, as above. […]

Nalm 6 cells = assay: Cross-cell line test for cAMP efflux (F-cAMP); assay type: cell-based, human; conditions: Nalm 6, 37° C., 100 μM MK-571, overnight
Procedure: (§1) To study the differences in cAMP-removal, cells were loaded with a fluorescent cAMP-analog, and incubated under different conditions: low temperature (4° C.) used to estimate the passive probe “leakage”, and physiological temperature (37° C.) used to assess active removal of the probe.
(§2) Briefly, 15 million cells were loaded with F-cAMP via the osmotic process detailed above. Small volumes of cells were analyzed by flow cytometry post-staining to determine baseline fluorescence values based on MFI. […] The remaining cells were split in half, and one group was treated with a final concentration of 100 μM MK-571, while the other received DMSO-only at an equal volume. These two groups of cells were incubated ˜24 hr according to standard tissue culture conditions (37° C., 5% CO2/95% air). After incubation, cells were analyzed with flow cytometry for FL-1 MFI.
(§3) Because cells loaded with F-cAMP were washed, the resulting concentration gradient could have caused a “passive leak” of the probe. All 6 cell lines appeared to efflux F-cAMP, although to different extents (FIG. 7A a). After incubation at 4° C., the cells lost 20-60% of their fluorescence from the initial F-cAMP loading.

MHH Call 3 cells = assay: Cross-cell line test for cAMP efflux (F-cAMP); assay type: cell-based, human; conditions: MHH Call 3, 37° C., 100 μM MK-571, overnight
Procedure: as §1, §2, §3

RS4; 11 cells = assay: Cross-cell line test for cAMP efflux (F-cAMP); assay type: cell-based, human; conditions: 11, 37° C., 100 μM MK-571, overnight
Procedure: as §1, §2, §3

Sup B15 cells = assay: Cross-cell line test for cAMP efflux (F-cAMP); assay type: cell-based, human; conditions: Sup B15, 37° C., 100 μM MK-571, overnight
Procedure: as §1, §2, §3

Reh cells = assay: Cross-cell line test for cAMP efflux (F-cAMP); assay type: cell-based, human; conditions: 37° C., 100 μM MK-571, overnight
Procedure: as §1, §2, §3

697 cells = assay: Cross-cell line test for cAMP efflux (F-cAMP); assay type: cell-based, human; conditions: 697, 37° C., 100 μM MK-571, overnight
Procedure: as §1, §2, §3

[4] = test system: healthy human peripheral blood mononuclear cells (PBMCs); assay: Cell TiterGlo luminescent cell viability assay in PBMCs
U937 cells [5] = assay: CellTrace CFSE cell proliferation assay; conditions: 3 μM, 48 hr
[6] = U-937, U937 cells, overnight incubation, dose responses 300 nM to 30 μM, read-out: Calculated EC50 values from Annexin V, 7-AAD double positive events
[7] = U-937, read-out: Calculated EC50 values from Annexin V, 7-AAD double positive events

C[C@H]1[C@H](OC(=O)CCC(=O)O)O[C@@H]2O[C@@]3(C)CC[C@H]4[C@H](C)CC[C@@H]1[C@@]24OO3 [Artesunate, artesunate]
EC50 (U937 cells [1]; [6]): 99.1 µM | Effect on cell cycle (PI staining) (U937 cells [2]): increased percentages of cells in G1 or apoptosis in a dose-dependent manner

CC1=NCCc2c1[nH]c1cc(O)ccc21 [Harmalol, harmalol]
EC50 (U937 cells [1]; [6]): 283 µM

CN(C)C(=O)CCSC(SCCC(=O)O)c1cccc(/C=C/c2ccc3ccc(Cl)cc3n2)c1 (stereo not drawn) [MK-571]
EC50 (U937 cells [3]; Homo sapiens, U-937, read-out: EC50 for inhibition of cAMP efflux calculated in assay development, U937 cells loaded with F-cAMP, overnight): 31 µM | Effect on cAMP efflux (U937 cells [3]; U937 cells loaded with F-cAMP, overnight): down-modulated cAMP efflux in a dose-dependent manner | F-cAMP probe removed in the presence of MK-571 (Nalm 6 cells): 60-70% | F-cAMP efflux in the presence of MK-571 (MHH Call 3 cells): blocked completely | F-cAMP probe removed in the presence of MK-571 (RS4; 11 cells): 30-40% | F-cAMP efflux in the presence of MK-571 (Sup B15 cells): blocked completely | F-cAMP probe removed in the presence of MK-571 (Reh cells): 30-40% | F-cAMP probe removed in the presence of MK-571 (697 cells): 60-70%

CO[C@H]1O[C@@H]2O[C@@]3(C)CC[C@H]4[C@H](C)CC[C@@H]([C@H]1C)[C@@]24OO3 [Artemether, artemether]
EC50 (U937 cells [1]; [6]): 106 µM

[O-][n+]1ccccc1[S-].[O-][n+]1ccccc1[S-].[Zn+2] [Pyrithione zinc, pyrithione zinc]
Selectivity: concentrations required by leukemic cells versus PBMCs (calculated EC50 values) ([4]; viability EC50, leukemic cell lines vs PBMCs): exception

O=C(O)Cc1ccccc1Nc1c(Cl)cccc1Cl [diclofenac]
Hit status in preliminary screen for cAMP efflux inhibitors (U937 cells [3]): did not come out as hits

C[C@H]1[C@@H](O)O[C@@H]2O[C@@]3(C)CC[C@H]4[C@H](C)CC[C@@H]1[C@@]24OO3 [Dihydroartemisinin, dihydroartemisinin]
EC50 (U937 cells [1]; [6]): 55.7 µM

CC[C@@]1(O)C(=O)OCc2c1cc1n(c2=O)Cc2cc3c(CN(C)C)c(O)ccc3nc2-1 [topotecan]
Hit status in preliminary screen for cAMP efflux inhibitors (U937 cells [3]): did not come out as hits

CC1=C(CC(=O)O)c2cc(F)ccc2/C1=C\c1ccc([S+](C)[O-])cc1 (stereo not drawn) [sulindac]
Hit status in preliminary screen for cAMP efflux inhibitors (U937 cells [3]): did not come out as hits

C[C@@H]1CC[C@H]2[C@@H](C)C(=O)O[C@@H]3O[C@@]4(C)CC[C@@H]1[C@]32OO4 [Artemisinin, artemisinin]
EC50 (U937 cells [1]; [6]): 249 µM

Oc1c(I)cc(Cl)c2cccnc12 [Clioquinol, clioquinol]
EC50 (U937 cells [1]; [6]): 76.6 µM

O=C1c2ccc(O)c(O)c2C(=O)c2c(O)ccc(O)c21 [Quinalizarin, quinalizarin]
EC50 (U937 cells [1]; [6]): 172 µM

C[C@H]1COC2=C1C(=O)C(=O)c1c2ccc2c1CCCC2(C)C [Cryptotanshinone, cryptotanshinone]
EC50 ([4]; Homo sapiens, PBMC, read-out: EC50 for decreased PBMC viability): ~12 µM | EC50 (U937 cells [1]; [7]): 53.5 µM

O=C1C=C2C(=CCOC2O)O1 (stereo not drawn) [Patulin, patulin]
EC50 (U937 cells [1]; [7]): 3.29 µM | Effect on cell division (CFSE fluorescence) (U937 cells [5]): arrest of cell division within 48 hr
